Results on 12 compounds are retold here after US20240002354A1, “ANTIDIABETIC COMPOUNDS AND COMPOSITIONS” (REZUBIO PHARMACEUTICALS CO., LTD, priority 2020, published 2024).

In general, EC50 refers to the midpoint of the concentration-response curve.

This experiment deals with T1, GPR40 (Homo sapiens, UniProt O14842).
T1 construct: expressed in transfected cells
As to the kind of experiment: IP1 accumulation assay (Cisbio IP-One HTRF) in HEK293 cells stably expressing GPR40. It counts as cell-based. To be noted: HEK293 cells stably expressing GPR40, 37° C. for 2 hours, % Effect relative to AMG-1638 positive control. How it is done:
IP1 accumulation assay was used to evaluate the potency of compounds. HEK293 cells stably expressing GPR40 were cultured in 5% CO2 incubator (ThermoFisher) in maintenance media (Dulbecco's modified Eagle's medium with 4.5 g/L of glucose, 10% fetal bovine serum, 100 μg/mL Hygromycin, and Penicillin (100 U/mL)/Streptomycin (100 μg/mL)) till 100% confluency. Cells were harvested freshly, spun down at 300×g for 5 min, and resuspended in pre-warmed 1× stimulant buffer from Cisbio IP-One HTRF Detection kit (Cisbio). Cell density was adjusted to 2.0×10^6 cells/mL. DMSO was used as blank control and AMG-1638 (CAS #: 1142214-62-7) as positive control. Compounds were prepared at 10 mM in DMSO and 5 nL of 3× serially diluted compounds (10 concentrations) were added to each well of the 384-LDV assay plate (Corning) by using ECHO 550 (Labcyte). Five μL of cells in suspension were transferred into each well by using Multidrop Combi Reagent Dispenser (ThermoFisher). Assay plate was then sealed and incubated at 37° C. for 2 hours. IP-d2 reagent and anti-IP1 reagent were prepared following the manual (Cisbio). Five μL of IP1-d2 and then 5 μL of anti-IP1 antibody was added to each well sequentially. Assay plate was incubated at room temperature for 60 min and then read at 665 nm/615 nm on an Envision plate reader (PerkinElmer). The ratio of values obtained at 665 nm and 615 nm was used for calculation of IP1 accumulation: % Effect=(Ratiosample−Ratioblank)/(RatioAMG-1638−Ratioblank)×100. Dose curve was fitted and EC50 of each compound was calculated by using XLFit.
For orientation: Time-resolved FRET reads energy transfer from a long-lived donor to a nearby acceptor.

T1 sequence (O14842 whole entry): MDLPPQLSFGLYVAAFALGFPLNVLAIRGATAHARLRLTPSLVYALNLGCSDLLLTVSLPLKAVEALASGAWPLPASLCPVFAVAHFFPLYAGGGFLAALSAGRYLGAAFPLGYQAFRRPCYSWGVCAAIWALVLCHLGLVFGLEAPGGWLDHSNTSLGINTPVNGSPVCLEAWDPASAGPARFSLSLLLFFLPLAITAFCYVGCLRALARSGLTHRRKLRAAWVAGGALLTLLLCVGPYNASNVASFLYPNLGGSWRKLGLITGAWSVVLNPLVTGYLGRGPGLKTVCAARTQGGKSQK

`C[C@H](C(=O)O)[C@H](c1ccc2c(c1)O[C@@H](C1CCN(Cc3cc(CN=[N+]=[N-])ccc3OC(F)(F)F)CC1)CC2)C1CC1` [Compound 201] gave an EC50 of 1 to 50 nM. For the compound `C#CCOc1cc(COc2cccc([C@H](CC)CC(=O)O)c2)ccc1-c1cc(OC)ccc1F` [Compound No. 211], the EC50 was in the range of 1000 to 5000 nM. In the case of `CC[C@H](CC(=O)O)c1cccc(OCc2ccc(-c3cc(OC)ccc3F)c(OCc3cn(CCCCCCCCCCCCCCCCCC(=O)O)nn3)c2)c1` [Compound No. 212] it was at least 5000 nM. To `CCCCCCn1cc(COc2cc(COc3cccc([C@H](CC)CC(=O)O)c3)ccc2-c2cc(OC)ccc2F)nn1` [Compound No. 213] belongs 1000 to 5000 nM. In turn, `COc1ccc(F)c(-c2ccc(COc3cccc([C@@H](CC(=O)O)C4CC4)c3)cc2C(C)(C)N=[N+]=[N-])c1` [Compound No. 216, (S)-3-(3-((2-(2-azidopropan-2-yl)-2′-fluoro-5′-methoxy-[1,1′-biphenyl]-4-yl)methoxy)phenyl)-3-cyclopropylpropanoic acid] came in with an EC50 of 1 to 50 nM. The compound `C#CC(C)(C)c1cc(COc2cccc([C@@H](CC(=O)O)C3CC3)c2)ccc1-c1cc(OC)ccc1F` [Compound No. 217, (S)-3-cyclopropyl-3-(3-((2′-fluoro-5′-methoxy-2-(2-methylbut-3-yn-2-yl)-[1,1′-biphenyl]-4-yl)methoxy)phenyl)propanoic acid] yielded an EC50 of 1 to 50 nM. Turning to `CCCCCCc1cn(C(C)(C)c2cc(COc3cccc([C@@H](CC(=O)O)C4CC4)c3)ccc2-c2cc(OC)ccc2F)nn1` [Compound No. 218, (S)-3-cyclopropyl-3-(3-((2′-fluoro-2-(2-(4-hexyl-1H-1,2,3-triazol-1-yl)propan-2-yl)-5′-methoxy-[1,1′-biphenyl]-4-yl)methoxy)phenyl)propanoic acid], the EC50 was in the range of 250 to 1000 nM. Compound `CCCCCCn1cc(C(C)(C)c2cc(COc3cccc([C@@H](CC(=O)O)C4CC4)c3)ccc2-c2cc(OC)ccc2F)nn1` [Compound No. 219, (S)-3-cyclopropyl-3-(3-{2′-fluoro-2-[1-(1-hexyl-1H-[1,2,3]triazol-4-yl)-1-methyl-ethyl]-5′-methoxy-biphenyl-4-ylmethoxy}-phenyl)-propionic acid] registered an EC50 of 250 to 1000 nM. To `COc1ccc(F)c(-c2ccc(COc3cccc([C@@H](CC(=O)O)C4CC4)c3)cc2C(C)(C)n2cc(CCCCCCCCCCCCCCCCCC(=O)O)nn2)c1` [Compound No. 220, (S)-18-(1-(2-(4-((3-(2-carboxy-1-cyclopropylethyl)phenoxy)methyl)-2′-fluoro-5′-methoxy-[1,1′-biphenyl]-2-yl)propan-2-yl)-1H-1,2,3-triazol-4-yl)octadecanoic acid] belongs 1000 to 5000 nM; to `COc1ccc(F)c(-c2ccc(COc3cccc([C@@H](CC(=O)O)C4CC4)c3)cc2C(C)(C)c2cn(CCCCCCCCCCCCCCCCCC(=O)O)nn2)c1` [Compound No. 221, (S)-18-[4-(1-{4-[3-(2-Carboxy-1-cyclopropyl-ethyl)-phenoxymethyl]-2′-fluoro-5′-methoxy-biphenyl-2-yl}-1-methyl-ethyl)-[1,2,3]triazol-1-yl]-octadecanoic acid], 250 to 1000 nM; to `COc1ccc(F)c(-c2ccc(COc3cccc([C@@H](CC(=O)O)C4CC4)c3)cc2C(C)(C)CN=[N+]=[N-])c1` [Compound No. 224], 1 to 50 nM. For the compound `CCCCCCc1cn(CC(C)(C)c2cc(COc3cccc([C@@H](CC(=O)O)C4CC4)c3)ccc2-c2cc(OC)ccc2F)nn1` [Compound No. 225, (S)-3-cyclopropyl-3-(3-{2′-fluoro-2-[2-(4-hexyl-[1,2,3]triazol-1-yl)-1,1-dimethyl-ethyl]-5′-methoxy-biphenyl-4-ylmethoxy}-phenyl)-propionic acid], the half-maximal effective concentration (EC50) fell in the range of 50 to 250 nM.
